In patent US9278094B2, “Treatments for depression and other diseases with a low dose agent” (PharmoRx Therapeutics, Inc., priority 2013, dated 2016):

Columns and labels:
[1] = test system: patients with depression; experiment: Patient responses to low dose naltrexone treatment of depression (case reports)
Method: Patient #1: A middle aged person suffered severe depression with recurrent major depressive episodes. […] The former pharmacologic regimen was otherwise unchanged.
Patient #3: A patient presented with treatment-resistant depression. The patient was also diagnosed with Attention Deficit Disorder. The patient initially was treated with s-citalopram 15 mg, augmented by dextro-amphetamine.
Patient #4: A patient weighing approximately 60 kg had suffered severe unremitting depression. […] Subsequently, the patient was prescribed 5 mg naltrexone daily with continuation of s-citalopram.
They were being treated with buproprion XL 300 mg, augmented with melatonin 3 mg and N-acetyl-cysteine 1200 mg.
Patient #6: A patient with multiple major depression episodes, anhedonia, apathy, low energy and poor sleep was being treated with duloxetine 60 mg and buproprion 75 mg, and mirtazpine 15 mg. […] They also called and e-mailed multiple times per day. They were being treated with Effexor XR 75 mg QHS, Xanax 0.5 mg, and Clonazepam 1.5 mg.
The patient was then co-administered 1 mg daily of naltrexone with pramipexole.
Patient #9: A middle-age person suffered severe depression with recurrent major depressive episodes and social anxiety. They were being treated with Adderall 10 mg, levothyroxine 50 mcg, and propranol 10 mg.

[2] = test system: patients with breakthrough depression (BTD); experiment: Clinical testing of low dose naltrexone treatment of depression (double-blind, placebo-controlled); format: in vivo, human
[3] = target: C-terminal pentapeptide of the scaffolding protein filamin A (Homo sapiens, UniProt P21333); conditions: Wang, Frankfurt, & Burns, 2008; cited from earlier work
Sequence of C-terminal pentapeptide of the scaffolding protein filamin A (P21333 whole entry): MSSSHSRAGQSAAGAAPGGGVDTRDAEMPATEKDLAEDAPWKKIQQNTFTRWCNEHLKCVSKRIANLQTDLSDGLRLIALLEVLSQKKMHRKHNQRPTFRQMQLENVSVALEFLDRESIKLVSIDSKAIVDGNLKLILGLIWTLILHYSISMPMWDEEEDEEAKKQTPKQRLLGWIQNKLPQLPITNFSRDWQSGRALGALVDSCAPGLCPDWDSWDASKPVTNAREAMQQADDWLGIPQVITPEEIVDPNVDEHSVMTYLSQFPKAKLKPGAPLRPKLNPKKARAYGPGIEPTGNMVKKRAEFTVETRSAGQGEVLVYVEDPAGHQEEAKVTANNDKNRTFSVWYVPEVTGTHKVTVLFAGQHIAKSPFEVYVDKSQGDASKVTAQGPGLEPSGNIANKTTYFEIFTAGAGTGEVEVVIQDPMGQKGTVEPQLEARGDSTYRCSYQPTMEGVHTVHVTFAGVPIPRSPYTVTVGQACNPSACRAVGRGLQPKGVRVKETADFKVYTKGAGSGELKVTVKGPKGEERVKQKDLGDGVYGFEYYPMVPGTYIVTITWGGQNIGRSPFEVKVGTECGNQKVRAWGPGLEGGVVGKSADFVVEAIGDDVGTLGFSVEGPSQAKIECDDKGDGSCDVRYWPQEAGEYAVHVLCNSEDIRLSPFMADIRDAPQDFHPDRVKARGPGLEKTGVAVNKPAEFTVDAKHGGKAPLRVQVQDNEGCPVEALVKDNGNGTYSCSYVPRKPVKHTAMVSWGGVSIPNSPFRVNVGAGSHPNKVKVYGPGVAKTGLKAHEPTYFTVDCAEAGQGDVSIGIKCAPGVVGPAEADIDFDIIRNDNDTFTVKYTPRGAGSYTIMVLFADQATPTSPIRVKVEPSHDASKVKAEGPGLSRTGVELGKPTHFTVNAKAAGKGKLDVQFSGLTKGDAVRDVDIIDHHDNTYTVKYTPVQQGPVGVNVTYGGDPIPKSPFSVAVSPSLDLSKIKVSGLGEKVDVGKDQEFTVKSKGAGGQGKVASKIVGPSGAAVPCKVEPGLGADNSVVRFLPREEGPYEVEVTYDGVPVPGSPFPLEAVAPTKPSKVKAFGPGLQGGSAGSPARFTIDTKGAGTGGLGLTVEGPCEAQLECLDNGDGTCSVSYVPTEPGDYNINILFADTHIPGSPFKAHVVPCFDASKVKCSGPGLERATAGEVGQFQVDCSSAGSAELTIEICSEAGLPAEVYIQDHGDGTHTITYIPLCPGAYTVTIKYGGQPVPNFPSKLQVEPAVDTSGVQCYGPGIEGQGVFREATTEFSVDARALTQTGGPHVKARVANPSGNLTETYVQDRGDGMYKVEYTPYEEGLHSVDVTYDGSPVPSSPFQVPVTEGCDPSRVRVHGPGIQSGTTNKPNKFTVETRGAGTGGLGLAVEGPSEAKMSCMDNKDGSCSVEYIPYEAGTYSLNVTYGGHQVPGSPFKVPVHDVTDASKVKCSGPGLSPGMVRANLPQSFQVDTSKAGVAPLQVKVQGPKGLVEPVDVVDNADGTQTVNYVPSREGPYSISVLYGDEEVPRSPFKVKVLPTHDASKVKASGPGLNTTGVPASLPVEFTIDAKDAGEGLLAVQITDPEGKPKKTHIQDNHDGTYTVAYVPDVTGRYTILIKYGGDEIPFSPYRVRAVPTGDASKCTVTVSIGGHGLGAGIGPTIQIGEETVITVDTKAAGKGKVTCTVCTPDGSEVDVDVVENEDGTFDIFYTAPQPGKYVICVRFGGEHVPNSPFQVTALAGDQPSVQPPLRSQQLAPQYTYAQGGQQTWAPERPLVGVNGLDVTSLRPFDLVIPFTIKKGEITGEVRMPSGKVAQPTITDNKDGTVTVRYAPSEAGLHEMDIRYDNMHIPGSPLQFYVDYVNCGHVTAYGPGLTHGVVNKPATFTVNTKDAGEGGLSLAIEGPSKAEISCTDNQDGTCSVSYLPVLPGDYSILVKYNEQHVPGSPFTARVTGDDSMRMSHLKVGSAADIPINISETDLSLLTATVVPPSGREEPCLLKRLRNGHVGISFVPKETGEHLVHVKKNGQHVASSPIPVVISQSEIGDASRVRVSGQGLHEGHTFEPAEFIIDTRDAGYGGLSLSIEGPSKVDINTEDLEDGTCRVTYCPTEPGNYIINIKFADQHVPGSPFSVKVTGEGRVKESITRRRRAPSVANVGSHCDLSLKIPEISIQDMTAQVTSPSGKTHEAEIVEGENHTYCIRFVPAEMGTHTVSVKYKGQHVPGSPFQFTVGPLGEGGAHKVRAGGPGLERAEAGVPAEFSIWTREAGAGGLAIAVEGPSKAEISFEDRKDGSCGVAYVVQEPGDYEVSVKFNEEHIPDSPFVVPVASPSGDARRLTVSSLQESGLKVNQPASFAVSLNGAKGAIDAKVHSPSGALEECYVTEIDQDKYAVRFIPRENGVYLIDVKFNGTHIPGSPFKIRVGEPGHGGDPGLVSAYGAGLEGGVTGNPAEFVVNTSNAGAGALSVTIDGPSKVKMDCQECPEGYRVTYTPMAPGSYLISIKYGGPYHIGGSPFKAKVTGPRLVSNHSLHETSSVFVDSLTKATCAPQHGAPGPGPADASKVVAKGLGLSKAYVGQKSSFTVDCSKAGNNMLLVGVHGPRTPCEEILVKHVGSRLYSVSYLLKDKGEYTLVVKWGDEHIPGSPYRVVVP

[4] = low dose naltrexone (e.g. less than 10 mg); cited from earlier work
[5] = test system: Restless Leg Syndrome (RLS); conditions: RLS treated with D2/D3 agonists pramipexole or ropinirole; Philips Respironics Actigraphy; see U.S. Ser. No. 12/603,235; cited from earlier work

O=C1CC[C@@]2(O)[C@H]3Cc4ccc(O)c5c4[C@@]2(CCN3CC2CC2)[C@H]1O5 [naltrexone, 17-(cyclopropylmethyl)-4,5α-epoxy-3,14-dihydroxymorphinan-6-one]
time to remission after initiating ([1]; Patient #1, about 1 mg naltrexone daily): About one
duration of maintained remission ([1]; Patient #1, adjunctive naltrexone 1 mg daily, continuing to present): more than 6 months
duration of maintained response ([1]; Patient #2): over 2 years
time to response ([1]; Patient #2): ≤ 2 weeks
attention ([1]; Patient #3, Attention Deficit Disorder, naltrexone 1 mg added, within days): much improved
adverse effects reported ([1]; Patient #3, naltrexone 1 mg): no adverse effects
mood response ([1]; Patient #3, naltrexone 1 mg added to s-citalopram 15 mg and dextro-amphetamine, within days): marked lifting of mood
duration of observation remaining euthymic ([1]; Patient #4): more than two
time to remission ([1]; Patient #5): two
duration of improvement ([1]; Patient #5, and continuing): five
time to response ([1]; Patient #6): one
time to response ([1]; Patient #7): three
rates of response on all outcome measures (HAM-D-17, HAM-D-28, MADRS-10, MADRS-15, CGI-S, CGI-I) ([2]; 1 mg bid, on antidepressant regimen containing a pro-dopaminergic agent, versus placebo, three weeks): higher rates of response
persistence of response ([2]; 1 mg bid, patients on active drug followed six weeks): continued during the entire six week trial period
Quality of Life, Enjoyment, and Satisfaction Questionnaire (Q-LES-Q) score ([2]; compared to placebo controls): greater improvement
Sheehan Disability Scale (SDS) score ([2]; compared to placebo controls): greater improvement
Kd [3]: < 5 pM
effects of opioid agonists [4]: enhance the effects of opioid agonists
control of periodic limb movements of sleep [5]: equivalent control of limb movements at one-half the prior dose of D2/D3 agonists

CCCN[C@H]1CCc2nc(N)sc2C1 [pramipexole, (S)—N^6-propyl-4,5,6,7-tetrahydro-1,3-benzothiazole-2,6-diamine]
benefit in depression before naltrexone ([1]; Patient #8, pramipexole without naltrexone): limited benefit

O=C1CCc2ccc(OCCCCN3CCN(c4cccc(Cl)c4Cl)CC3)cc2N1 [aripiprazole, 7-{4-[4-(2,3-Dichlorophenyl)piperazin-1-yl]butoxy}-3,4-dihydroquinolin-2(1H)-one]
earlier response of depression ([1]; Patient #1, in the past, before naltrexone): transiently responded
